Data set [1] relates to Tagia sp. To be noted: acute; duration: 14 days; mortality.
Data set [2] has as its system Daphnia magna. To be noted: chronic/long-term; duration: 21 days; reproduction.
Data set [3] deals with Canidae. To be noted: subchronic; duration: 90 days; oral; Dog Other; body weight.
The test system of data set [4] is Rattus norvegicus.
In data set [5] the test system is Lepomis macrochirus. To be noted: chronic/long-term; duration: 28 days; body weight.
Data set [6] has as its system Oryctolagus sp. To be noted: developmental; development.
Data set [7] concerns Typhlodromus pyri. Briefly: LR50; higher = less toxic. To be noted: not reported; mortality.
The mark [8] stands for this setting: reproduction developmental, reproduction.

`CC(C)C(O)(c1ccc(OC(F)(F)F)cc1)c1cncnc1` (configuration not stated) [Flurprimidol]: the figures for the NOEC in data set [1], in data set [2] and in data set [5] were 62.6 mg/kg, 1.7 mg/L and 0.42 mg/L, respectively. For the same compound, the NOAEL (usually the highest dose or exposure tested at which no adverse effect was seen) is 1.5 mg/kg-day in data set [3]; 10 mg/kg-day in data set [4] (developmental, development); 1.8 mg/kg-day in data set [4] (setting [8]); 1.96 mg/kg-day in data set [4] (subchronic, duration: 90 days, oral, F, organ weight); 9 mg/kg-day in data set [6]. For the same compound, the LOAEL (usually the lowest tested level that showed an adverse finding) in data set [4] (chronic, duration: 2 years, organ weight) is 1 mg/kg-day. Also, the NOEL in data set [4] (setting [8]) is 1.8 mg/kg-day; in data set [4] (short-term, oral, diet, body weight), 1.62 mg/kg-day. The LR50 in data set [7] is above 29.6 g/ha.

These data come from EPA's ToxValDB 9.5 (doi:10.2903/j.efsa.2008.151r).
